Data published in paper PMC8617627, “Novel DYRK1A Inhibitor Rescues Learning and Memory Deficits in a Mouse Model of Down Syndrome” (Pharmaceuticals, 2021).
Where two headings read alike, the source gives them in different places.

Columns and labels:
[1] = tested on: Ts65Dn mice; assay: Contextual fear conditioning; assay type: in vivo
Procedure: The capacity for contextual memory of 10- to 16-week old Ts65Dn mice was compared with age-matched euploid control mice using a fear conditioning protocol. Briefly, the mice were exposed for 3 min to the context test chamber serving as a conditioning stimulus, followed by an electric shock for 2 s representing the unconditioned stimulus. […] Freezing, defined as a species-specific defensive reaction characterized by lack of movement besides respiration and heartbeat, associated with crouching posture, was used as a measure of learning, and assessed for 180 s, every 9 s by two trained observers […] of the mouse genotypes and the pharmacological agent being used.
The capacity for contextual memory of 10- to 16-week-old Ts65Dn mice was compared with age-matched euploid control mice using the same fear conditioning protocol used in a previous work with the drug memantine. Briefly, the mice were exposed for 3 min to the context (Med Associates, St. Albans, VT, Modular Mouse Test Chamber) serving as a conditioning stimulus, followed by an electric shock (2 s, 0.7 mA, constant electric current) representing the unconditioned stimulus. […] Freezing, defined as a species-specific defensive reaction characterized by lack of movement besides respiration and heartbeat, associated with crouching posture, was used as a measure of learning, and assessed for 180 s, every 9 s by two trained observers […] of the mouse genotypes and the pharmacological agent being used. The mean number of observations indicating freezing behavior was expressed as percentage of freezing in relation to the total number of observations. All experiments were video-recorded, for automated video-analysis, confirmation of the trained-observer scores, and archival purposes.
In addition, the mice continued to consume these same food preparations during the two days necessary to perform the behavioral testing.

[2] = biological target: TIE2 (Homo sapiens, UniProt Q02763); assay: Kinase profile (33P ATP filter binding); assay type: biochemical; details: read-out: Remaining protein kinase activity
[3] = biological target: T1, EPH-B2 (Homo sapiens, UniProt P29323); assay: Kinase profile (33P ATP filter binding); assay type: biochemical
T1 sequence (P29323 19-1055): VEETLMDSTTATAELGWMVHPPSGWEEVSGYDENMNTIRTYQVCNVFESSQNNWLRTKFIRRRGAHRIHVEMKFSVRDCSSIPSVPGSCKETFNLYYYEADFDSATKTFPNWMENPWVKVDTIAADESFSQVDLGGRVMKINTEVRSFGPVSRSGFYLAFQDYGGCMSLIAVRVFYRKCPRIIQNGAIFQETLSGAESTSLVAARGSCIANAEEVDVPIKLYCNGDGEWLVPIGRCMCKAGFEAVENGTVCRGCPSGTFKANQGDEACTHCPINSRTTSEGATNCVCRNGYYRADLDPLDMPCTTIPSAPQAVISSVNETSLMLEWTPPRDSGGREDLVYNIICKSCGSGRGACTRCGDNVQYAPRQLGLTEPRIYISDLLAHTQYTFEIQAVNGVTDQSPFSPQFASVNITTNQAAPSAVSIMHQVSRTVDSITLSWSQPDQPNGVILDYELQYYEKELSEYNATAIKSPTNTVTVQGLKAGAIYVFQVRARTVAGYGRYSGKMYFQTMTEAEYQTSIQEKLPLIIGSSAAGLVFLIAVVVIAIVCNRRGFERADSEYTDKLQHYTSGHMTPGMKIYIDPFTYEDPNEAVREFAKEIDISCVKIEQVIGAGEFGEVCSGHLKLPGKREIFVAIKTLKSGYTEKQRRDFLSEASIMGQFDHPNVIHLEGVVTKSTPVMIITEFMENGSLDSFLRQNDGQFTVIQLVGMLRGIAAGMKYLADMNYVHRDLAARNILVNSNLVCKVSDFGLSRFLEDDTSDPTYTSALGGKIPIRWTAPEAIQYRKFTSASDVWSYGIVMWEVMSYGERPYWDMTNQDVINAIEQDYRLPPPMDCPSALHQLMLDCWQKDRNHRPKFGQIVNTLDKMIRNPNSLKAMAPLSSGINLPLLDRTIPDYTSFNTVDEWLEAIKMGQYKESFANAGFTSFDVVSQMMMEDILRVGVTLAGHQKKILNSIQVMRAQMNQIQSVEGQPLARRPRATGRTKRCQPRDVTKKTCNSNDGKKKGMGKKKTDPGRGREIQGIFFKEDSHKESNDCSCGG

[4] = biological target: p38b MAPK (Homo sapiens, UniProt Q15759); assay: Kinase profile (33P ATP filter binding); assay type: biochemical; details: read-out: Remaining protein kinase activity
[5] = Rat IV pharmacokinetics; assay type: in vivo; details: after IV bolus 1 mg/kg
[6] = biological target: CLK2 (Homo sapiens, UniProt P49760); assay: Kinase profile (33P ATP filter binding); assay type: biochemical; details: read-out: Remaining protein kinase activity
[7] = biological target: DYRK3 (Homo sapiens, UniProt O43781); assay: Kinase profile (33P ATP filter binding); assay type: biochemical; details: read-out: Remaining protein kinase activity
[8] = biological target: DYRK2 (Homo sapiens, UniProt Q92630); assay: Kinase profile (33P ATP filter binding); assay type: biochemical; details: read-out: Remaining protein kinase activity
[9] = biological target: FGF-R1 (Homo sapiens, UniProt P11362); assay: Kinase profile (33P ATP filter binding); assay type: biochemical; details: read-out: Remaining protein kinase activity
[10] = biological target: DYRK1A (Homo sapiens, UniProt Q13627); assay: Kinase profile (33P ATP filter binding); assay type: biochemical; details: read-out: Remaining protein kinase activity
[11] = biological target: GSK3b (Homo sapiens, UniProt P49841); assay: Kinase profile (33P ATP filter binding); assay type: biochemical; details: read-out: Remaining protein kinase activity
Chain of GSK3b (P49841 whole entry): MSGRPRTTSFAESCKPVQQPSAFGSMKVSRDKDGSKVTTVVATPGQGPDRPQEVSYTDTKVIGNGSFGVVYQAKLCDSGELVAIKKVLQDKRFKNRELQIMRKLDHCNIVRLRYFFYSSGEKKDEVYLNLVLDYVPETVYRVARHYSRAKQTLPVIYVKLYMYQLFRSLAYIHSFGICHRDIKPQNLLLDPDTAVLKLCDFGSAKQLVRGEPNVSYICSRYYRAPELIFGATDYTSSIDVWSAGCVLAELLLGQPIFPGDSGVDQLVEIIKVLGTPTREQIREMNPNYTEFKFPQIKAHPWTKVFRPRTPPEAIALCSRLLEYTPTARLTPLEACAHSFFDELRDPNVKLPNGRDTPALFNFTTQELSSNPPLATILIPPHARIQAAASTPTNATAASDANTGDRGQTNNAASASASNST

Chain of p38b MAPK (Q15759 whole entry): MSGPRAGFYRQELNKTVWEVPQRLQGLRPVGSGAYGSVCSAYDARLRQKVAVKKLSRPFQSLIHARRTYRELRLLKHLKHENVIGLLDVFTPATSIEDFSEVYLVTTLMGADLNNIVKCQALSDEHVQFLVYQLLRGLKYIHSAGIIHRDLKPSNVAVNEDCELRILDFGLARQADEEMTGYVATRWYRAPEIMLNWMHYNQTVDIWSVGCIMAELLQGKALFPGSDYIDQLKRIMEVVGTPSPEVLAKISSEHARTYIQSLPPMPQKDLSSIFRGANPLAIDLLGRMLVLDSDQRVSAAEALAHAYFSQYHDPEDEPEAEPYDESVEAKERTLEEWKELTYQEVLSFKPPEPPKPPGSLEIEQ
Chain of TIE2 (Q02763 23-1124): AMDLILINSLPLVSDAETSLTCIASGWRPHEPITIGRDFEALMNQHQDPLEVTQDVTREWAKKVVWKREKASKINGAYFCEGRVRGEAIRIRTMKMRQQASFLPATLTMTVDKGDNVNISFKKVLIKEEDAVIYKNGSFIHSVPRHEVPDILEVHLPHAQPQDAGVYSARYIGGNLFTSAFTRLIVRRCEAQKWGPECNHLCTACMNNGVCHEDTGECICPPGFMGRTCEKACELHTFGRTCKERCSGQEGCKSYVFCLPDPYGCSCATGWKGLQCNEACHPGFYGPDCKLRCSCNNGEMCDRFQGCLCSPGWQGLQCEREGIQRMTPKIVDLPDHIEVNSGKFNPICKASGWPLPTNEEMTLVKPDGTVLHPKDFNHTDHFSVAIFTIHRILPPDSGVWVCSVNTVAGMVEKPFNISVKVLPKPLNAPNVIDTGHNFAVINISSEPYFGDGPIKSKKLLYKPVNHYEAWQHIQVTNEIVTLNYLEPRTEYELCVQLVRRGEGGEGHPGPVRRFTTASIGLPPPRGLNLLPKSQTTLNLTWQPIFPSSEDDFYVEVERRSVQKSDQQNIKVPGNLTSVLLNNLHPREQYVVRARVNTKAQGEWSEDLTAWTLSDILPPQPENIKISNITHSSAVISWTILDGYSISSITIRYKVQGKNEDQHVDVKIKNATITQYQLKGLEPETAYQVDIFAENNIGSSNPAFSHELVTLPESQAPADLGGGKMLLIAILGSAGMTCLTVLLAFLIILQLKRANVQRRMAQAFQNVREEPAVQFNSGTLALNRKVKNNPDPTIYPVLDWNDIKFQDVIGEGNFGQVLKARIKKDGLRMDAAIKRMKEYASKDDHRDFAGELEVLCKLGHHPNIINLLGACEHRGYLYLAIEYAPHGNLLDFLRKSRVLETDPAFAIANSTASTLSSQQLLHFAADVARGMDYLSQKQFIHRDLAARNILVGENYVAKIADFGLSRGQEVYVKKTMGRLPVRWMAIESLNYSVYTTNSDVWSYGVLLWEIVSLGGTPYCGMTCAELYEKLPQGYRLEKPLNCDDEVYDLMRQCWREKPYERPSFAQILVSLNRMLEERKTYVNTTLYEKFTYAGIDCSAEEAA
Chain of FGF-R1 (P11362 22-822): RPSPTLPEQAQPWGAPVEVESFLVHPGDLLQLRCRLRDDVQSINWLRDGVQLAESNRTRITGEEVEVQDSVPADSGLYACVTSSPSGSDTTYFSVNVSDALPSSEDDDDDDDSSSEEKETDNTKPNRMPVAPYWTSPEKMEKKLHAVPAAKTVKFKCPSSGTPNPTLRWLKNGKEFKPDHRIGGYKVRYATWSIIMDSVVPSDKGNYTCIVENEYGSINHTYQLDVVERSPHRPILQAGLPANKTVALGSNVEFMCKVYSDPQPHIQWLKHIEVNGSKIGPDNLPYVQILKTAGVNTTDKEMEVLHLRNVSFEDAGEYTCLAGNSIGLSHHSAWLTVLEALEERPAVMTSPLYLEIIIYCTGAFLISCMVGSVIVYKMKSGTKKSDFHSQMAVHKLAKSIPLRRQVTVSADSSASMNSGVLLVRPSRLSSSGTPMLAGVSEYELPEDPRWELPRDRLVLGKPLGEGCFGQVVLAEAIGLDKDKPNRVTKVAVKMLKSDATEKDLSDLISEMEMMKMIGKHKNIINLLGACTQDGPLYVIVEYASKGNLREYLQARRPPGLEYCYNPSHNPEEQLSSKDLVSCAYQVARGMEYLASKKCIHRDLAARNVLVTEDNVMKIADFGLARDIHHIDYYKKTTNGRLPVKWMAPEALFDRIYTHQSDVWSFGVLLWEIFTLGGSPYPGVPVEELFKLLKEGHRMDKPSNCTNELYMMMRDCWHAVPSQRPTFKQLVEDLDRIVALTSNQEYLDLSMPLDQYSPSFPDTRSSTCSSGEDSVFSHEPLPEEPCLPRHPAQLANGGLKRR
Chain of DYRK3 (O43781 whole entry): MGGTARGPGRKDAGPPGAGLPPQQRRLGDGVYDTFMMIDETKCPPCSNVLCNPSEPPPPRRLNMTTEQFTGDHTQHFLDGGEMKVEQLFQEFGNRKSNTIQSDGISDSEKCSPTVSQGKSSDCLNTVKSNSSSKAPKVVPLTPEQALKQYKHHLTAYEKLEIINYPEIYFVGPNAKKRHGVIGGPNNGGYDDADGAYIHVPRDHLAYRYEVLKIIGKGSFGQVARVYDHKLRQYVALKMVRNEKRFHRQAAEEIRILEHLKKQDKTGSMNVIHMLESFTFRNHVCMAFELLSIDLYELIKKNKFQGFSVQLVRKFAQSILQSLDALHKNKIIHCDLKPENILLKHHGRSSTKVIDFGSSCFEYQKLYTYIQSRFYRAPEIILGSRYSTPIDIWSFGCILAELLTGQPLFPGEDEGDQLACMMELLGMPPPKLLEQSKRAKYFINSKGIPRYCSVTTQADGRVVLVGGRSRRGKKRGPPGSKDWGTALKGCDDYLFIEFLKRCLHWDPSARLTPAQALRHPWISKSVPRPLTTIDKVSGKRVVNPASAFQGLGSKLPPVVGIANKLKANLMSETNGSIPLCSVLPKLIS
Chain of DYRK2 (Q92630 whole entry): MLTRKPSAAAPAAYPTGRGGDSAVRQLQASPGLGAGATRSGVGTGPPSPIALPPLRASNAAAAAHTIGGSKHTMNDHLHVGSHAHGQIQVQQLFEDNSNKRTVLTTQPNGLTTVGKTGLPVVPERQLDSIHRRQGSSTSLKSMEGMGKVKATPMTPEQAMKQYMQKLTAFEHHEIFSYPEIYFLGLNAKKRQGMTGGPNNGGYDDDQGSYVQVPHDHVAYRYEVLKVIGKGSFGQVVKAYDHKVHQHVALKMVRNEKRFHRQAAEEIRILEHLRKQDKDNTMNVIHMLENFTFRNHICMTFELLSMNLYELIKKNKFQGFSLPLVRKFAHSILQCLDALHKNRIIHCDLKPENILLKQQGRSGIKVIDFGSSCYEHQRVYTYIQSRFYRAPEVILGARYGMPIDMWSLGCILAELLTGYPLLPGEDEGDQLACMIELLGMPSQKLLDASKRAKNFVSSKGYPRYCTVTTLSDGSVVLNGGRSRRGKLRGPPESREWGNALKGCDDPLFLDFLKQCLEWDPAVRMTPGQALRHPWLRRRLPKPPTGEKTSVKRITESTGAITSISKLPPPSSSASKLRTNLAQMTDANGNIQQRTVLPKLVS
Chain of CLK2 (P49760 whole entry): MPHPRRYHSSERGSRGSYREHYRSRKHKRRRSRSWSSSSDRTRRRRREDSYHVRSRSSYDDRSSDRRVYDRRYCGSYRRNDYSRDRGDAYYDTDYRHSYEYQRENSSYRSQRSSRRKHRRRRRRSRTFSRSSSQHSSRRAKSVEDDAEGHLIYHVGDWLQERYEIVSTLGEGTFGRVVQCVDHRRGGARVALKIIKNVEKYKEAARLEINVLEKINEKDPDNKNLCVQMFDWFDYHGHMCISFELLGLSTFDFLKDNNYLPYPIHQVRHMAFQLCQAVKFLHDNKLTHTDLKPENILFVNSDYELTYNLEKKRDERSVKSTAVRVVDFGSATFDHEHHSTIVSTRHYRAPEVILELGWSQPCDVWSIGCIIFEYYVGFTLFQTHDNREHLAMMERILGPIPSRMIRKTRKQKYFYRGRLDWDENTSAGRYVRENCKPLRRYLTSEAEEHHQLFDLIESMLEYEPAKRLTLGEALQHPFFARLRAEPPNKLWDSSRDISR

COc1ccc2sc(-c3cncc(NC(C)=O)c3)nc2c1 [PST-001, N-(5-(5-Methoxybenzo[d]thiazol-2-yl)pyridin-3-yl)acetamide]
Learning and memory deficits (freezing in context test) ([1]; Ts65Dn mice, PST-001 in the food): completely eliminated the learning and memory deficits | Tolerability ([1]; Ts65Dn mice, chronic oral administration): well tolerated | Percentage of freezing behavior ([1]; control euploid mice, PST-001 in the food): no detectable effects | remaining activity at 1 µM [2]: 129% | remaining activity at 100 µM [2]: 133% | Remaining protein kinase activity ([3]; 1 μM): 137% | Remaining protein kinase activity ([3]; 100 μM): 125% | remaining activity at 100 µM [4]: 115% | PST-001 in the urine [5]: No PST-001 could be found

COc1ccc2sc(-c3cncc(N)c3)nc2c1 [compound 1, 5-(5-Methoxybenzo[d]thiazol-2-yl)pyridin-3-amine]
remaining activity at 1 µM ([6]; 1 μM): 23% | remaining activity at 100 µM ([6]; 100 μM): 1% | remaining activity at 1 µM ([7]; 1 μM): 14% | remaining activity at 100 µM ([7]; 100 μM): 2% | remaining activity at 1 µM ([8]; 1 μM): 11% | remaining activity at 100 µM ([8]; 100 μM): 1% | remaining activity at 1 µM ([9]; 1 μM): 110% | remaining activity at 100 µM ([9]; 100 μM): 91% | remaining activity at 1 µM ([2]; TIE2, 1 μM): 135% | remaining activity at 100 µM ([2]; TIE2, 100 μM): 85% | Remaining protein kinase activity ([3]; 1 μM): 136% | Remaining protein kinase activity ([3]; 100 μM): 96% | remaining activity at 1 µM ([4]; p38b MAPK, 1 μM): 119% | remaining activity at 100 µM ([4]; p38b MAPK, 100 μM): 101% | remaining activity at 1 µM ([10]; 1 μM): 7% | remaining activity at 100 µM ([10]; 100 μM): 0% | remaining activity at 1 µM ([11]; 1 μM): 107% | remaining activity at 100 µM ([11]; 100 μM): 25%
